Values joined by “and” are separate entries in the source; they are usually repeats but may differ in a detail not shown here. Identical values can stand only once.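 96-well plates; 48 h exposure; 5 concentrations. Endpoints by linear interpolation between flanking doses. Not reached: highest tested concentration assigned. Abbreviation: GI50, concentration required for 50% inhibition of growth. TGI marks complete inhibition of growth.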

Here are results for nine molecules from PubChem BioAssay (NCI).

Among the test systems are UACC-62 melanoma; SK-MEL-2 melanoma; COLO 205 colon; A549 NSCLC; HOP-92 NSCLC; MCF7 breast; MDA-MB-231 breast; SF-268 CNS; MOLT-4 leukemia; K-562 leukemia.
Assay in all cases: NCI tumour cell line growth inhibition, 48 h

For the molecule `CCOC(=O)C1CCCCN1C(=O)c1ccc(Nc2cnc3cc(C(F)(F)F)ccc3n2)cc1` (centres undefined), the GI50 in the assay with UACC-62 melanoma is 14.2 µM; with SK-MEL-2 melanoma it was 23.2 µM; in the assay with COLO 205 colon it was 23 µM; with A549 NSCLC, 15 µM; in the assay on MCF7 breast, 10.2 µM; in the assay on MDA-MB-231 breast, 2.86 µM. Besides, the GI50 in the assay on SF-268 CNS was 13.2 µM; in the assay with MOLT-4 leukemia, 3.93 µM; in the assay on K-562 leukemia, 15.1 µM. Further, the TGI with UACC-62 melanoma is 27.7 µM; in the assay on SK-MEL-2 melanoma, 67.3 µM; in the assay on COLO 205 colon, 71.8 µM; in the assay with A549 NSCLC it was 44.2 µM; with HOP-92 NSCLC it was 5.93 µM; in the assay on MCF7 breast it was 25.1 µM. Also, the TGI in the assay with MDA-MB-231 breast was 5.66 µM; in the assay on SF-268 CNS it was 32.7 µM; in the assay on MOLT-4 leukemia it was > 100 µM; with K-562 leukemia it was > 100 µM.

In the case of `CC1=C(C(=O)N(C)c2ccc(Cl)c(C(=O)OC(C)C)c2)SCCO1`, the TGI with UACC-62 melanoma, in the assay on SK-MEL-2 melanoma, with COLO 205 colon, with A549 NSCLC, in the assay with HOP-92 NSCLC and in the assay on MCF7 breast was > 100 µM each time. Moreover, the TGI in the assay on MDA-MB-231 breast, in the assay on SF-268 CNS, in the assay on MOLT-4 leukemia and in the assay on K-562 leukemia was > 100 µM each time.

Consider `NC(=O)Nc1cc(-c2cccc(F)c2)sc1C(=O)N[C@H]1CCCNC1`, for which the GI50 was 0.388 µM and 0.353 µM with UACC-62 melanoma; 0.151 µM and 0.244 µM in the assay with SK-MEL-2 melanoma; 0.169 µM and 0.216 µM with COLO 205 colon; 0.188 µM and 0.356 µM in the assay on A549 NSCLC; 0.0553 µM and 0.416 µM in the assay on HOP-92 NSCLC; 0.0285 µM and 0.144 µM in the assay on MCF7 breast. In addition, the GI50 with MDA-MB-231 breast was 0.305 µM and 0.424 µM; with SF-268 CNS, 0.327 µM and 0.458 µM; in the assay on MOLT-4 leukemia, 0.0606 µM and 0.26 µM; with K-562 leukemia, 0.0949 µM and 0.254 µM. The TGI with UACC-62 melanoma is > 5.1 µM and 3.43 µM; in the assay with SK-MEL-2 melanoma, > 3.75 µM and 3.15 µM; in the assay with COLO 205 colon, 0.937 µM and 0.645 µM; in the assay with A549 NSCLC it was 4.48 µM and 2.12 µM; in the assay on HOP-92 NSCLC it was 1.2 µM and 1.71 µM; in the assay with MCF7 breast it was > 10 µM and 13.6 µM. In addition, the TGI with MDA-MB-231 breast was 2.82 µM and 2.33 µM; with SF-268 CNS it was 3.35 µM and 4.14 µM; with MOLT-4 leukemia, > 10 µM and 1.8 µM; with K-562 leukemia it was > 10 µM and 10.5 µM.

As for `COc1ccccc1CNCCCN1C(=O)c2ccc3c4c(ccc(c24)C1=O)C(=O)N(CCCN)C3=O`, the GI50 was 0.422 µM in the assay on UACC-62 melanoma; 1.46 µM in the assay on SK-MEL-2 melanoma; 0.814 µM in the assay with COLO 205 colon; 1.87 µM with A549 NSCLC; 2.4 µM in the assay on HOP-92 NSCLC; 0.329 µM with MCF7 breast. Moreover, the GI50 is 1.67 µM in the assay on MDA-MB-231 breast, 1.22 µM with SF-268 CNS, 0.446 µM in the assay on MOLT-4 leukemia and 0.751 µM with K-562 leukemia. The TGI in the assay with UACC-62 melanoma was 1.56 µM; in the assay with SK-MEL-2 melanoma, 3.31 µM; in the assay with COLO 205 colon, 2.12 µM; in the assay on A549 NSCLC, 4.11 µM; with HOP-92 NSCLC, 5.65 µM; with MCF7 breast, 1.6 µM. In addition, the TGI worked out at 10.9 µM in the assay on MDA-MB-231 breast, 3.94 µM in the assay on SF-268 CNS, 2.24 µM with MOLT-4 leukemia and 3.35 µM with K-562 leukemia.

`Cc1ccc(-c2nc3nc(-c4ccccc4)nc(N4CCNCC4)c3o2)cc1`: the GI50 with UACC-62 melanoma is 1.74 µM; in the assay with SK-MEL-2 melanoma, 1.86 µM; with COLO 205 colon it was 0.208 µM; with A549 NSCLC it was 0.788 µM; in the assay on HOP-92 NSCLC, 1.48 µM; with MCF7 breast, 0.401 µM. Besides, the GI50 is 0.226 µM in the assay with MDA-MB-231 breast, 1.75 µM in the assay with SF-268 CNS, 0.238 µM with MOLT-4 leukemia and 0.235 µM with K-562 leukemia. Also, the TGI in the assay with UACC-62 melanoma stood at 3.27 µM; in the assay on SK-MEL-2 melanoma it was 3.64 µM; with COLO 205 colon, 0.423 µM; in the assay on A549 NSCLC, 2.5 µM; in the assay on HOP-92 NSCLC it was 3.13 µM; with MCF7 breast, 1.73 µM. Further, the TGI with MDA-MB-231 breast was 0.537 µM; with SF-268 CNS, 4.02 µM; in the assay on MOLT-4 leukemia, 0.573 µM; in the assay on K-562 leukemia, 0.521 µM.

On to `O=C1C(SCCO)=C(SCCO)C(=O)N1c1ccc(-c2ccccc2)cc1`, for which the GI50 with UACC-62 melanoma is 6.34 µM; in the assay with SK-MEL-2 melanoma it was 0.259 µM; with COLO 205 colon, 1.45 µM; in the assay with A549 NSCLC it was 10.2 µM; in the assay on HOP-92 NSCLC, 1.87 µM; in the assay with MCF7 breast, 2.17 µM. Moreover, the GI50 with MDA-MB-231 breast was 13.3 µM; in the assay on SF-268 CNS, 3.1 µM; in the assay on MOLT-4 leukemia, 18.9 µM; in the assay with K-562 leukemia it was > 50 µM. Also, the TGI in the assay with UACC-62 melanoma was 19 µM; in the assay with SK-MEL-2 melanoma, 1.69 µM; in the assay with COLO 205 colon, 3.09 µM; with A549 NSCLC, 27 µM; in the assay on HOP-92 NSCLC, 7.24 µM; with MCF7 breast, 7.74 µM. Also, the TGI with MDA-MB-231 breast is 32.7 µM; in the assay with SF-268 CNS, 7.65 µM; in the assay on MOLT-4 leukemia it was 73.1 µM; in the assay on K-562 leukemia it was > 100 µM.

As to `O=c1cc(-c2cccnc2)[nH]c2cc3c(cc12)OCO3`, the TGI with UACC-62 melanoma, with SK-MEL-2 melanoma, in the assay with COLO 205 colon, in the assay with A549 NSCLC, with HOP-92 NSCLC and with MCF7 breast was > 100 µM throughout. Moreover, the TGI in the assay on MDA-MB-231 breast, in the assay on SF-268 CNS, with MOLT-4 leukemia and with K-562 leukemia was > 100 µM each time.

Consider `O=C1C(c2cnc3ccccc3n2)=C(O)c2ccccc21`, for which the TGI in the assay with UACC-62 melanoma was > 100 µM; with SK-MEL-2 melanoma it was > 100 µM; in the assay on COLO 205 colon, > 56.2 µM; with A549 NSCLC, > 100 µM; with HOP-92 NSCLC, > 100 µM; with MCF7 breast it was > 100 µM. Further, the TGI with MDA-MB-231 breast, in the assay with SF-268 CNS, with MOLT-4 leukemia and in the assay with K-562 leukemia was > 100 µM in each case.

With `CN(C)CC1CCC2=C(C1=O)C(c1ccc(Cl)c(Cl)c1)C1=C(CCC(CN(C)C)C1=O)O2` (centres undefined), the GI50 with UACC-62 melanoma is 15.3 µM; in the assay on SK-MEL-2 melanoma, 16.6 µM; with COLO 205 colon, 5.48 µM; with A549 NSCLC it was 16.2 µM; with HOP-92 NSCLC it was 11.3 µM; in the assay with MCF7 breast, 1.26 µM. Besides, the GI50 was 15.4 µM in the assay on MDA-MB-231 breast, 15.6 µM in the assay with SF-268 CNS, 5.18 µM in the assay with MOLT-4 leukemia and 2.46 µM with K-562 leukemia. Also, the TGI in the assay with UACC-62 melanoma is 28.7 µM; with SK-MEL-2 melanoma, 30.7 µM; in the assay on COLO 205 colon it was 19.6 µM; with A549 NSCLC, 32.2 µM; in the assay with HOP-92 NSCLC, 25.5 µM; in the assay with MCF7 breast, 3.27 µM. Besides, the TGI turned out to be 28.7 µM in the assay on MDA-MB-231 breast, 29.5 µM in the assay with SF-268 CNS, 22.1 µM in the assay with MOLT-4 leukemia and 6.34 µM in the assay with K-562 leukemia.
